From article PMC6739424, “Osh Proteins Control Nanoscale Lipid Organization Necessary for PI(4,5)P2 Synthesis” (Molecular Cell, 2019) come the findings set out here.

The target of this assay is T1, zPIP5K (zebrafish PIP5K1A, zPIP5K1Aα) (Danio rerio, UniProt Q503I3).
T1 construct: gene pip5k1aa; kinase domain aa 49-431, His-tagged (pET21b+), E. coli
In words: real-time liposome assay with NBD-PHPLCδ PI([…])P2 sensor. Format: biochemical. The conditions noted are these: ATP 80 uM, 2 mM MgCl2, pH 7.5; liposomes without PS or sterol; allosteric sigmoidal fit.

T1 sequence (Q503I3 49-431): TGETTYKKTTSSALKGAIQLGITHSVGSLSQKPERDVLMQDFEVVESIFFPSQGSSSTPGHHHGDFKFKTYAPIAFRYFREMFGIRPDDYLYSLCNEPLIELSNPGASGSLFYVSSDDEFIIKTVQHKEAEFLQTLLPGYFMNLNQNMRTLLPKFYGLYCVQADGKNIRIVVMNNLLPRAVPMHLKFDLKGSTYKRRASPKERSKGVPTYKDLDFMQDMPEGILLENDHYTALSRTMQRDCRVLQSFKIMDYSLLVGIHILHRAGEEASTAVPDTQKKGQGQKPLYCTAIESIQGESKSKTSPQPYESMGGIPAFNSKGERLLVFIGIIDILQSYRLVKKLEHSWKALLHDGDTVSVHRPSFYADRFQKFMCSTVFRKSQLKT

Regarding “L-α-phosphatidylinositol-4-phosphate [bPI4P]”, the “apparent Km” value is 6.2 mol%.
